# Values quoted from earlier work in patent US9198859B2, “Concentrated mast cell stabilizing pharmaceutical formulations” (PARI Pharma GMBH, priority 2009, dated 2015).
# Experiments:
# [1] = tested on: respiratory syncytial virus; settings: mice
# [2] = 6 months; nebulized 3 times daily IsoCrom (20 mg/2 ml) via eFlow; children
# [3] = tested on: influenza virus; settings: mice
compound,measurement,setting,value
"O=C(O)c1cc(=O)c2c(OCC(O)COc3cccc4oc(C(=O)O)cc(=O)c34)cccc2o1 [DSCG, disodium cromoglycate]",protection against RSV induced illness,[1],protected against respiratory syncytial virus induced illness
same,therapeutic efficacy versus inhaled steroids,[2],as effective as inhaled steroids
same,protection from death induced by influenza virus infection,[3],protected mice from death
